From patent EP0970046B1, “N-HYDROXY-2-(ALKYL, ARYL, OR HETEROARYL SULFANYL, SULFINYL OR SULFONYL)-3-SUBSTITUTED ALKYL, ARYL OR HETEROARYLAMIDES AS MATRIX METALLOPROTEINASE INHIBITORS” (Wyeth Holdings Corporation, priority 1997, dated 1998)
pIC50: −log10 of the molar value. Read-outs that look alike come from different tables or passages of the source.

Experiments:
Format in all cases: biochemical
[1] = target: MMP 13 (Homo sapiens, UniProt P45452); assay: MMP 13 inhibition (IC50 / manual assay; method not described); settings: for pIC50: read-out: MMP 13 IC 50; for inhibition at 1 µM: read-out: MMP 13 % inhibition at 1 micromolar
[2] = target: T1, MMP 9 (Homo sapiens, UniProt P14780); assay: In Vitro Gelatinase Assay; settings: human neutrophil gelatinase B; for pIC50: read-out: MMP 9 IC 50; for inhibition at 1 µM: read-out: MMP 9 % inhibition at 1 micromolar, 1 micromolar
T1 construct: from tissue; host or cells: human neutrophils
T1 sequence (P14780 94-707): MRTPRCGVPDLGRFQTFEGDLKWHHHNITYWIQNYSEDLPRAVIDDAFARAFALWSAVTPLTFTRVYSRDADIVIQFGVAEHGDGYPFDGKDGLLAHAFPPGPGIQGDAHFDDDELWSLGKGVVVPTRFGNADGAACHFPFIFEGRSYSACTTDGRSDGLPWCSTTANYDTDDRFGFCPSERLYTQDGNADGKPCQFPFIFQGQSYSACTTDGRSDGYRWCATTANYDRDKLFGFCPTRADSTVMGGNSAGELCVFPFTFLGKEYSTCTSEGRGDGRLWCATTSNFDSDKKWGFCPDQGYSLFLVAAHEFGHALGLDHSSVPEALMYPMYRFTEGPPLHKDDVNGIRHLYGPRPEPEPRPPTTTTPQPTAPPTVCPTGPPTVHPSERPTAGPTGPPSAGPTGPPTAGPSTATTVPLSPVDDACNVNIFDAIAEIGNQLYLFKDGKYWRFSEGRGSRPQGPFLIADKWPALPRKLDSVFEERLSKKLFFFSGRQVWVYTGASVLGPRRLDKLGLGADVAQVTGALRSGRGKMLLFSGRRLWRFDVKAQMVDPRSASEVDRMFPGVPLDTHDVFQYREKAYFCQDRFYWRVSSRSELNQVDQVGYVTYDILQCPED
Method: The assay is based on the cleavage of the thiopeptide substrate ((Ac-Pro-Leu-Gly(2 mercapto-4 methyl-pentanoyl)-Leu-Gly-OEt), Bachem Bioscience) by the enzyme, gelatinase, releasing the substrate product which reacts colorimetrically with DTNB ((5,5'-dithio-bis(2-nitro-benzoic acid)). The enzyme activity is measured by the rate of the color increase. The thiopeptide substrate is made up fresh as a 20 mM stock in 100% DMSO and the DTNB is dissolved in 100% DMSO as a 100 mM stock and stored in dark at room temperature. Both the substrate and DTNB are diluted together to 1 mM with substrate buffer (50 mM HEPES pH 7.5, 5 mM CaCl2) before use. […] The increase in OD405 is plotted and the slope of the line is calculated which represents the reaction rate. The linearity of the reaction rate is confirmed (r^2 >0.85). The mean (x ± sem) of the control rate is calculated and compared for statistical significance (p <0.05) with drug-treated rates using Dunnett's multiple comparison test.

[3] = target: T2, MMP 1 (Homo sapiens, UniProt P03956); assay: In Vitro Collagenase Assay; settings: human recombinant fibroblast collagenase; for pIC50: read-out: MMP 1 IC 50; for inhibition at 1 µM: read-out: MMP 1 % inhibition at 1 micromolar, 1 micromolar
T2 construct: human recombinant fibroblast collagenase (truncated, mw= 18,828, WAR, Radnor)
T2 sequence (P03956 100-269 limits assumed): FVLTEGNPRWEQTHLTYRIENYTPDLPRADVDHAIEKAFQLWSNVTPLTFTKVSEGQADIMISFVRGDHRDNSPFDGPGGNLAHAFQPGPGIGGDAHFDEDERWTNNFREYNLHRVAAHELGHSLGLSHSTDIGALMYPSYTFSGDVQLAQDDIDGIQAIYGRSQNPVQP
Method: The assay is based on the cleavage of a peptide substrate ((Dnp-Pro-Cha-Gly-Cys(Me)-His-Ala-Lys(NMa)-NH2), Peptide International, Inc.) by collagenase releasing the fluorescent NMa group which is quantitated on the fluorometer. Dnp quenches the NMa fluorescence in the intact substrate. […] Substrate is dissolved in methanol and stored frozen in 1 mM aliquots. […] For the assay, substrate is dissolved in HCBC buffer to a final concentration of 10 µM and collagenase to a final concentration of 5 nM. Compounds are dissolved in methanol, DMSO, or HCBC. The methanol and DMSO are diluted in HCBC to < 1.0%. Compounds are added to the 96 well plate containing enzyme and the reaction is started by the addition of substrate.
The slope of the line is calculated and represents the reaction rate.
The linearity of the reaction rate is confirmed (r^2 >0.85). The mean (x ± sem) of the control rate is calculated and compared for statistical significance (p <0.05) with drug-treated rates using Dunnett's multiple comparison test.

[4] = target: T3, TACE (Homo sapiens, UniProt P78536); assay: Procedure for Measuring TACE Inhibition; settings: for inhibition at 1 µM: read-out: TACE % inhibition at 1 micromolar
T3 construct: purchased Immunex
T3 sequence (P78536 215-824): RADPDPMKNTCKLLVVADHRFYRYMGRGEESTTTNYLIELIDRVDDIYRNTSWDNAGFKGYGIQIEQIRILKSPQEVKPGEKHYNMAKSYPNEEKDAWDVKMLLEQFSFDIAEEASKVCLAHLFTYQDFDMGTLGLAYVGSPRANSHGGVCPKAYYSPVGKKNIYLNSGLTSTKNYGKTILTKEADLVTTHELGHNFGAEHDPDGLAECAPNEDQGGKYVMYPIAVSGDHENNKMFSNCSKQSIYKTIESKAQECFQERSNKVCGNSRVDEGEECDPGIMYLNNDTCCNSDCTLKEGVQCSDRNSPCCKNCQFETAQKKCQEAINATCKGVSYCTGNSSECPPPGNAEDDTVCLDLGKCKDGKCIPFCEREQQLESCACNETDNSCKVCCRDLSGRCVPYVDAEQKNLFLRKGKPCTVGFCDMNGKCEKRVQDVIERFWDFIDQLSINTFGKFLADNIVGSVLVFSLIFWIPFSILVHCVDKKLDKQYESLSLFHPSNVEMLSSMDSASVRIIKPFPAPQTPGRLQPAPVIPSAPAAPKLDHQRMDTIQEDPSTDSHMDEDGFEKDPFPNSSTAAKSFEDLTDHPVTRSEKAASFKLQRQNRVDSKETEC
Procedure, shortened: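 Single-concentration screen: test compound at 1 µM final, 10-min room-temperature preincubation with 1 µg/mL protease in Tris pH 7.4 buffer containing glycerol. Initial rate from linear fluorescence increase (340/420 nm) over 10 min after adding 100 µM peptidyl substrate; significance versus control rate by Dunnett's test.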

| SMILES | pIC50 [1] | pIC50 [2] | pIC50 [3] | other results |
| --- | --- | --- | --- | --- |
| CCCCC[C@H](C(=O)NO)[S@+]([O-])c1ccc(OC)cc1 (stereo in doubt) [Example 81a, 2R*-(4-methoxy-phenyl-S*- sulfinyl)-heptanoic acid hydroxyamide] | 7.36 | 6.64 | 5.69 |  |
| COc1ccc(SC(C)(Cc2ccccc2)C(=O)NO)cc1 (stereo not shown) [Example 1, N-Hydroxy-2-(4-methoxy-phenylsulfanyl)-2-methyl-3-phenyl-propionamide] | 6.71 | 6.25 |  | inhibition at 1 µM [4]: 31.6% |
| COc1ccc(SC(C(=O)NO)c2ccccc2)cc1 (stereo not shown) [Example 2, N-Hydroxy-2-(4-methoxy-phenylsulfanyl)-2-phenyl-acetamide] |  |  |  | inhibition at 1 µM [1]: 0%; pIC50 ([4]; read-out: TACE IC 50): 6.39; inhibition at 1 µM [2]: 10.5% |
| COc1ccc(SC(C)(CC=C(C)C)C(=O)NO)cc1 (stereo not shown) [Example 3, 2-(4-Methoxy-phenylsulfanyl)-2,5-dimethyl-hex-4-enoic acid hydroxyamide] | 6.77 | 6.51 |  | inhibition at 1 µM [4]: 27.4% |
| COc1ccc([S+]([O-])C(C)(Cc2ccccc2)C(=O)NO)cc1 (stereo not shown) [Example 5, N-Hydroxy-2-(4-methoxy-benzenesulfinyl)-2-methyl-3-phenyl-propionamide] | 8.33 | 8.11 |  | inhibition at 1 µM [4]: 25% |
| COc1ccc(S(=O)(=O)C(CC=C(C)C)(Cc2ccc(OCCN3CCOCC3)cc2)C(=O)NO)cc1 (stereo not shown) [Example 24, 2-(4-Methoxy-benzenesulfonyl)-5-methyl-2-[4-(2-morpholin-4-yl-ethoxy)-benzyl]-hex-4-enoic acid hydroxyamide] | 7.50 | 7.68 | 6.38 |  |
| CCOc1ccc(S(=O)(=O)C(C)(Cc2ccc(OCCN(CC)CC)cc2)C(=O)NO)cc1 (stereo not shown) [Example 25, N-Hydroxy-2-(4-ethoxy-benzenesulfonyl)-2-methyl-3-[4-(2-N,N-diethylamino-ethoxy)-phenyl]-propionamide] | 8.10 | 7.57 |  |  |
| COc1ccc(S(=O)(=O)C(C/C=C(\C)CCC=C(C)C)(Cc2ccc(OCCN3CCOCC3)cc2)C(=O)NO)cc1 (stereo not shown) [Example 26, (4E)-2-(4-Methoxy-benzenesulfonyl)-5,9-dimethyl-2-[4-(2-morpholin-4-yl-ethoxy) - benzyl]-deca-4,8-dienoic acid hydroxyamide] | 8.49 | 8.20 | 6.52 |  |
| CCCCC(Cc1ccc(OCCN(CC)CC)cc1)(C(=O)NO)S(=O)(=O)c1ccc(OC)cc1 (stereo not shown) [Example 27, 2-[4-(2-Diethylamino-ethoxy)-benzyl]-2-(4-methoxy-benzenesulfonyl)-hexanoic acid hydroxyamide] | 7.52 | 6.97 | 6.20 |  |
| CCCCOc1ccc(S(=O)(=O)C(C)(Cc2ccc(OCCN3CCCCC3)cc2)C(=O)NO)cc1 (stereo not shown) [Example 28, N-Hydroxy-2-(4-n-butoxy-benzenesulfonyl)-2-methyl-3-[4-(2-piperidin-1-yl-ethoxy)-phenyl]-propionamide] | 8.70 |  |  | inhibition at 1 µM [4]: 30.6% |
| CCN(CC)CCOc1ccc(CC(C)(C(=O)NO)S(=O)(=O)c2ccc(-c3ccco3)cc2)cc1 (stereo not shown) [Example 32, 3-[4-(2-Diethylamino-ethoxy)-phenyl]-2-(4-furan-2-yl-benzenesulfonyl)-N-hydroxy-2-methyl-propionamide] | 9.00 | 8.43 | 7.86 |  |
| CCCC(Cc1ccc(OCCN2CCOCC2)cc1)(C(=O)NO)S(=O)(=O)c1ccc(OC)cc1 (stereo not shown) [Example 35, 2-(4-Methoxy-benzenesulfonyl)-2-[4-(2-morpholin-4-yl-ethoxy)-benzyl]-pentanoic acid hydroxyamide] | 7.32 | 6.63 | 6.34 |  |
| CCCCCCC(Sc1ccc(OC)cc1)C(=O)NO (stereo not shown) [Example 37, 2-(4-Methoxy-benzenesulfanyl)-octanoic acid hydroxyamide] |  |  |  | inhibition at 1 µM [1]: 14.3%; inhibition at 1 µM [2]: 31.6%; inhibition at 1 µM [3]: 9% |
| CCCCCCC(Sc1nccn1C)C(=O)NO (stereo not shown) [Example 39, 2-(1-methyl-1H-imidazol-2-ylsulfanyl)-octanoic acid hydroxyamide] |  |  |  | inhibition at 1 µM [1]: 26.6%; inhibition at 1 µM [2]: 35.2%; inhibition at 1 µM [3]: 29.4% |
| CC(C)=CCC(CC=C(C)C)(C(=O)NO)S(=O)(=O)c1ccc(C)cc1 [Example 42, 5-Methyl-2-(3-methyl-but-2-enyl)-2-(toluene-4-sulfonyl)-hex-4-enoic acid hydroxyamide] | 8.21 | 7.29 |  |  |
| COc1ccc(S(=O)(=O)C(CCCCOc2ccccc2)(Cc2cccnc2)C(=O)NO)cc1 (stereo not shown) [Example 68, 2-(4-Methoxy-benzenesulfonyl)-6-phenoxy-2-pyridin-3-ylmethyl-hexanoic acid hydroxyamide] | 7.57 | 7.54 |  | pIC50 ([4]; read-out: TACE IC 50): 6.28 |
| COc1ccc(S(=O)(=O)C(CCC(C)C)(Cc2cccnc2)C(=O)NO)cc1 (stereo not shown) [Example 69, 2-(4-Methoxy-benzenesulfonyl)-5-methyl-2-pyridin-3-ylmethyl-hexanoic acid hydroxyamide] | 7.05 |  | 6.24 | inhibition at 1 µM [4]: 41.3% |
| CC#CCC(Cc1cccnc1)(C(=O)NO)S(=O)(=O)c1ccc(F)cc1 (stereo not shown) [Example 76, 2-(4-Fluoro-benzenesulfonyl)-2-pyridin-3-ylmethyl-hex-4-ynoic acid hydroxyamide] | 6.30 |  | 6.09 |  |
| CCCCCC#CCC(Cc1cccnc1)(C(=O)NO)S(=O)(=O)c1ccc(F)cc1 (stereo not shown) [Example 77, 2-(4-Fluoro-benzenesulfonyl)-2-pyridin-3-ylmethyl-dec-4-ynoic acid hydroxyamide] | 6.77 |  | 6.69 |  |
| CC#CCC(CC#CC)(C(=O)NO)S(=O)(=O)c1ccc(F)cc1 [Example 78, 2-(4-Fluoro-benzenesulfonyl)-2-but-2-ynyl-hex-4-ynoic acid hydroxyamide] | 7.47 | 6.25 |  | inhibition at 1 µM [4]: 24.6% |
| COc1ccc(S(=O)(=O)C2(C(=O)NO)CCN(CCCc3ccccc3)CC2)cc1 [Example 91, 4-(4-methoxy-benzenesulfonyl)-1-(3-phenyl-propyl)-piperidine-4-carboxylic acid hydroxyamide] |  | 7.88 | 5.71 | pIC50 ([4]; read-out: TACE IC 50): 6.30 |
| CCCCOc1ccc(S(=O)(=O)C2(C(=O)NO)CCN(Cc3ccccc3)CC2)cc1 [Example 98, 1-Benzyl-4-(4-butoxy-benzenesulfonyl)-piperidine-4-carboxylic acid hydroxyamide] | 8.92 |  |  |  |
| COc1ccc(S(=O)(=O)C2(C(=O)NO)CCN(CCc3ccccc3)CC2)cc1 [Example 103, 4-(4-methoxy-benzenesulfonyl)-1-(2-phenyl-ethyl)-piperidine-4-carboxylic acid hydroxyamide] | 8.06 | 7.35 |  | pIC50 [4]: 6.33 |
| CCCCOc1ccc(S(=O)(=O)C2(C(=O)NO)CCN(Cc3ccc(OC)cc3)CC2)cc1 [Example 104, 4-(4-n-Butoxy-benzenesulfonyl)-1-(4-methoxy-benzyl)-piperidine-4-carboxylic acid hydroxyamide] | 8.85 |  |  | pIC50 ([4]; read-out: TACE IC 50): 6.68 |
| CCCCOc1ccc(S(=O)(=O)C2(C(=O)NO)CCN(CCCOc3ccccc3)CC2)cc1 [Example 106, 4-(4-n-Butoxy-benzenesulfonyl)-1-(3-phenoxy-propyl)-piperidine-4-carboxylic acid hydroxyamide] |  | 8.29 | 5.42 | pIC50 ([4]; read-out: TACE IC 50): 6.20 |
| CCCCOc1ccc(S(=O)(=O)C2(C(=O)NO)CCN(CCOc3ccccc3)CC2)cc1 [Example 108, 4-(4-n-Butoxy-benzenesulfonyl)-1-(2-phenoxy-ethyl)-piperidine-4-carboxylic acid hydroxyamide] |  | 8.27 | 5.54 | pIC50 ([4]; read-out: TACE IC 50): 6.57 |
